For data set [1], the system named is MDA-MB231. Briefly: SRB antiproliferative assay, MDA-MB231. In kind it is cell-based, human. As to conditions: Homo sapiens, MDA-MB-231, 48 h. As to the method:
(§1) Antiproliferative effects were determined by a sulforhodamine B (SRB) based protocol. For a typical screening experiment, 5,000-10,000 cells were inoculated into 100 μl medium per well of a 96-well microtiter plate as described previously. […] Some of the sample wells were fixed with 25 μl of 50% trichloroacetic acid (TCA) as a control of the cell population for each cell line at the time of drug addition (Tz). An aliquot of the frozen stock was thawed and diluted to the desired final maximum test-concentration with complete medium. Two to ten-fold serial dilutions were made to provide a total of seven drug concentrations (and a control [C]). Following addition of drugs, the culture plate was incubated for additional 48 h. Cells were fixed in situ by slowly adding 25 μl of ice-cold 50% (w/v) TCA (final concentration, 10% TCA), and were then incubated for 60 min at 4° C. The supernatant was discarded, and the plate was washed five times with tap water, followed by air-dry. 50 μl of SRB solution at 0.4% (w/v) in 1% acetic acid was added to each well, and the plate was incubated for >30 min at room temperature. Unbound SRB was removed by five washes with tap water, followed by air-drying. […] The relative growth rate (%) was calculated for each of the compound concentrations according to the following formula: (Ti−Tz)/(C−Tz)×100 In the formula, time zero (Tz), control growth (C), and OD for different concentration of tested compounds (Ti). The GI50 for each compound was obtained from a non-linear Sigmoidal dose-response (variable slope) curve which is fitted by GraphPad Prism™ v.4.03 software. Values were calculated for each of these parameters if the level of activity was reached. However, if the effect was not reached or was exceeded, the value for that parameter was expressed as greater or less than the maximum or minimum concentration tested. Flow Cytometry

Data set [2] deals with MDA-MB468. Briefly: SRB antiproliferative assay, MDA-MB468. As to conditions: Homo sapiens, MDA-MB-468, 48 h. In kind it is cell-based, human. As to the method:
as §1

The test system of data set [3] is MCF7. Briefly: SRB antiproliferative assay, MCF7. The following applies: Homo sapiens. In kind it is cell-based, human. As to the method:
as §1

Data set [4] relates to 184B5. Briefly: SRB antiproliferative assay, 184B5 non-cancer breast cells. In kind it is cell-based, human. The following applies: Homo sapiens, 184B5; SRB, 48 h; read-out: GI50 184B5. As to the method:
as §1

Data set [5] relates to MCF10A. Briefly: SRB antiproliferative assay, MCF10A non-cancer breast cells. In kind it is cell-based, human. The following applies: Homo sapiens, MCF-10A, 48 h. As to the method: as §1
For data set [6], the system named is MCF10A non-cancer cells. As to conditions: 50 μM CQ.
The nature of data set [7]: Serum ALT liver toxicity, CD-1 mice. As to conditions: Chloroquine (Reference).
Description: (§2) Alanine Transaminase (“ALT”, SUP6001-c)/Aspartate Transaminase (“AST”, SUP6002-c) color endpoint assay kits were purchased from ID Labs Biotechnology (London, Ontario, Canada). Elevation of ALT and AST levels in serum samples is used as an indicator of liver damage/injury.
(§3) Animals were monitored for food and water consumption every day, and their body weights and tumor volumes were measured twice per week. Tumor volumes were measured with a digital caliper and were determined by using the following formula: ½ length×width^2. Blood samples were collected via cardiac puncture and processed further for ALT and AST measurements. The animals were then immediately euthanized by carbon dioxide.
(§4) Changes in body weight and the amount and ratio of alanine transaminase (ALT)/aspartate transaminase (AST) were used to measure toxic effects.
Ratio of <2 is considered normal.
For data set [8], the system named is MCF7 cells. Briefly: Clonogenic assay using MCF7 cells. In kind it is cell-based, human. As to the method:
The clonogenic assay was carried out as described in Santi and Lee (2011).^11
Antiproliferative activity of VR-23 was evaluated on a variety of different cell lines, alone or in combination with Bortezomib, by way of SRBSRB or clonogenic assays.

Data set [9] has as its system MDA-MB231 human metastatic breast cancer cells. The data set is described as follows: Xenograft antitumor activity, ATH490 mice engrafted with MDA-MB231. In kind it is in vivo. Also noted: Tumor size D7 / Tumor size D15 / Tumor size D18 / Tumor size D22: unit not given here. As to the method: Five-week-old female CD-1 and ATH490 (strain code 490) athymic nude mice were purchased from Charles River (Quebec, Canada). The MDA-MB231 human metastatic breast cancer cells were obtained from the American Tissue Culture Collection (ATCC, Manassas, Va., USA). Cells were maintained under humidified condition at 37° C. and 5% CO2 in DMEM high glucose medium (ATCC) supplemented with 10% fetal bovine serum and antibiotics. All animal experiments, including animal handling, care, treatment and endpoint determination, were reviewed and approved by the Laurentian University Animal Care Committee (ACC) and carried out at Laurentian University Animal Care facility (Sudbury, Ontario, Canada)
To determine anti-tumor activity of VR-23 in an animal model, a xenograft model of human breast cancer cells in athymic nude mice was established. Exponentially growing MDA-MB231 cells were harvested and counted for inoculation into mice. Each mouse was subcutaneously injected at the flank with 10×10^6 cells in 0.2 ml ice cold 1×PBS. When tumor size reached 4-5 mm in diameter (n=4-5 per group), mice were randomly assigned into five (or more) groups.

Data set [10] can be described thus: Organ weight and histology (liver, spleen, kidney, lung) of ATH490 mice. As to the method:
All values are presented as mean±S.E.M. Analyses were performed using GraphPad Prism software (GraphPad Software). Comparison between the groups was made by p value determination using one-way ANOVA. A p value of <0.05 was considered to be statistically significant. […] Each organ weight (%) is normalized with total body weight (BW).
The H&E stained slides were taken with a 20× objective using a Zeiss EPI-fluorescent microscope (bright field). […] At least 10 fields for each slide (one slide per mouse, and 3 mice per group) were examined.
Images were taken with a 10× objective using a Zeiss EPI-fluorescent microscope. […] Drug administration was carried out as described in Table IX and in the Materials and Methods section herein with respect to Animal Studies.
The images of the H&E stained renal tissues were taken with a Zeiss EPI-fluorescent (bright field) microscope using a 10× objective.

For data set [11] the following is noted: ATH490 mice.
Description: as §2, §3, §4
Ratio of <2 is considered normal.

SMILES strings stand for the structures. Where two headings read alike, the source gives them in different places.

`CCN(CC)CCCC(C)Nc1ccnc2cc(Cl)ccc12` (centres unmarked) [Chloroquine, reference compound]: the GI50 in data set [1] was 22.5 ± 1.44 µM; in data set [2], 28.6 ± 1.25 µM; in data set [3] (MCF7, 48 h, read-out: GI50 MCF7) it was 38.4 ± 1.2 µM; in data set [3] (MCF7, read-out: GI50 value of CQ on MCF7), ~38 µM; in data set [4], 76.1 ± 1.13 µM; in [5], 81.3 ± 1.45 µM. In addition, the “Apoptosis in MCF10A” value in data set [6] is listed as “some cells underwent apoptosis”. The same compound came in with an ALT in [7] of 6.03 ± 4.40 IU/L blood.
For the compound `CC(=O)O[C@H]1C(=O)[C@@]2(C)[C@H]([C@H](OC(=O)c3ccccc3)[C@]3(O)C[C@H](OC(=O)[C@H](O)[C@@H](NC(=O)c4ccccc4)c4ccccc4)C(C)=C1C3(C)C)[C@]1(OC(C)=O)CO[C@@H]1C[C@@H]2O` [Paclitaxel], the “Survival (% of the control)” value in data set [8] (1 nM of Paclitaxel alone) was found to be 35.8%; in [8] (1 nM of Paclitaxel alone, listed as paclitaxel) it was 35.8%; in [8] (2 nM of Paclitaxel alone) it was 9.5%. Further, the “Tumor size D7” value in data set [9] (day 7 post-treatment, dosing as in Table IX B) is given as 47.63 ± 8.67. Besides, the “Tumor size D15” value in data set [9] (day 15 post-treatment, dosing as in Table IX B) is 23.25 ± 11.63. Also, the “Tumor size D18” value in data set [9] (day 18 post-treatment, dosing as in Table IX B) is 25.20 ± 13.69. Further, the “Tumor size D22” value in data set [9] (day 22 post-treatment, dosing as in Table IX B) is reported as 16.59 ± 2.66. For the same compound, in data set [9] (paclitaxel 20 mg/kg/week), the “Reduction of tumor burden” value is on record as 18.4 fold. The “Microscopic Changes (liver)” value in data set [10] (ATH490 mice, VR-23, 30 mg/week, Paclitaxel, 20 mg/week) is recorded as “High rate of mitotic cells in liver”. In addition, the “Spleen histology (H&E)” value in data set [10] (VR-23 30 mg/kg, paclitaxel 20 mg/kg) was “side effects including germinal center (GC) expansion”. Besides, the “Kidney histology (H&E), nephrotoxicity” value in [10] (VR-23 30 mg/kg, paclitaxel 20 mg/kg, four weeks) was “high cellularity, endocapillary proliferative glomerulonephritis (enlarged glomeruli), and collapsed Bowman space”. In addition, in [10] (paclitaxel 20 mg/kg), the “Cases with liver cells with densely stained nucleic acids” value is on record as “approximately 15%”. The Weight of spleen result in data set [10] (paclitaxel-treated, 29 days post-treatment) is “weight of spleen was higher”. Also, the ALT in [11] was 35.91 ± 4.26 U/L. Moreover, in data set [11], the AST came to 84.4 ± 29.21 U/L.

The values are drawn from US9975852B2, “Quinoline sulfonyl derivatives and uses thereof” (Health Sciences North Research Institute, priority 2013, dated 2018).
